# Patent US20100069450A1, “SALT OF 3-BENZYL-2-METHYL-2,3,3A,4,5,6,7, 7A- OCTAHYDROBENZO[D]ISOXAZOL-4-ONE” (ABIOGEN PHARMA S.P.A, priority 2006, published 2010)
# Where a name gives a salt, the structure may show the parent alone. Read-outs that look alike come from different tables or passages of the source.
# Assays:
# [1] = Stability test of BTG 1640 salts: purity under preservation conditions; type: physicochemical
# Description: Samples of 100 mg each of BTG 1640 hydrochloride were subjected to the following preservation conditions:
# The purities were then analyzed periodically, initially every three months, in order to underline possible variations.
# Samples of 100 mg each of BTG 1640 fumarate prepared according to example 1C were subjected to the following preservation conditions:
# Quarterly and in an overall period of nine months its purity was then analyzed in order to underline possible variations. The results in the following Table 3 were obtained:
# As comparison other salts of BTG 1640 were prepared, and exactly: • BTG 1640 methanesulphonate • BTG 1640 maleate • BTG 1640 succinate following the procedure indicated in example 1 and substituting methanesolphonic, maleic and succinic acids for fumaric acid.
# The stabilities were then evaluated by subjecting samples of 100 mg of each salt to the following analogous preservation conditions:
# Quarterly and in an overall period of nine months their purity was then analyzed in order to underline possible variations.
# The obtained results, together with those obtained in Example 2 for hydrochloride, in Example 3 for fumarate in order to make easier the comparison, were in Table 5 and represented in FIGS. 5-8.
# [2] = Stability test of BTG 1640 salts: evaluation of total impurities; type: physicochemical; conditions: for Impurities (in words): condition d): 40° C./75% RH
# Description: Contemporaneously, the impurity analysis in the conditions a)-d) of T/% RH were carried out.
# As a confirmation of such evidence, a test for the evaluation of the impurity percentage of the sample subjected to the same conditions a)-d) of T/% RH was parallely carried out. The experimental values in Table 4 were obtained.
# female CD-1 mice = test: Acute oral toxicity; type: in vivo
# Description: Acute oral toxicity of salts hydrochloride and fumarate of BTG-1640 was evaluated.
# The two salts were dispersed in an aqueous suspension, thus obtaining two formulations, each one orally administered through oesophageous gavage at dose of 2000 mg/kg bw (expressed as free base of BTG 1640) to one of two groups comprising three female CD-1 mice per group.
# The observation lasted 14 days.
# [3] = Absorption kinetic: plasma concentration of BTG 1640 after oral gavage; type: in vivo, rats Sprague Dawley; conditions: for BTG 1640 free base concentration in plasma: rats, oral gavage 10 mg/kg (as free base)
# Description: Absorption extent and rate of molecule BTG 1640 in its forms of fumarate and hydrochloride salts were evaluated.
# With this intent, the two salts were dispersed in an aqueous suspension of arabic gum at 5% thus obtaining two formulations, each one orally administered through oesophageous gavage at dose of 10 mg/kg (expressed as free base of BTG 1640) to five rats Sprague Dawley.
# Plasma concentration of molecule BTG 1640 was determined at different time points.
# [4] = T = 25° C., humidity 60% RH, time 0
# [5] = T = 25° C., humidity 60% RH, time 3 (months)
# [6] = T = 25° C., humidity 60% RH, time 6 (months)
# [7] = T = 25° C., humidity 60% RH, time 9 (months)
# [8] = T = 30° C., humidity 65% RH, time 0
# [9] = T = 30° C., humidity 65% RH, time 3 (months)
# [10] = T = 30° C., humidity 65% RH, time 6 (months)
# [11] = T = 30° C., humidity 65% RH, time 9 (months)
# [12] = T = 40° C., humidity 75% RH, time 0
# [13] = T = 40° C., humidity 75% RH, time 3 (months)
# [14] = T = 40° C., humidity 75% RH, time 6 (months)
# [15] = female CD-1 mice, oral gavage 2000 mg/kg bw
# [16] = Sprague Dawley, rat, in vivo, po, 10 mg/kg
# [17] = T = 25° C., humidity 60% RH, time 12 (months)
# [18] = T = 25° C., humidity 60% RH, time 18 (months)
# [19] = T = 25° C., humidity 60% RH, time 24 (months)
# [20] = T = 25° C., humidity 60% RH, time 36 (months)
# [21] = T = 30° C., humidity 65% RH, time 12 (months)
smiles,measurement,setting,value
"CN1OC2CCCC(=O)C2C1Cc1ccccc1 [BTG 1640 fumarate, fumarate salt of rel-(3R,3aS,7aS)-3-benzyl-2-methyl-2,3,3a,4,5,6,7,7a-octahydrobenzo[d]isoxazol-4-one]",Stability compared with BTG 1640 hydrochloride,[1],higher stability
same,Purity %,"[1]; T = 5° C., time 0",99.5%
same,Purity %,"[1]; T = 5° C., time 3 (months)",100.0%
same,Purity %,"[1]; T = 5° C., time 6 (months)",100.0%
same,Purity %,"[1]; T = 5° C., time 9 (months)",99.9%
same,Purity %,[1]; [4],99.5%
same,Purity %,[1]; [5],100.0%
same,Purity %,[1]; [6],100.0%
same,Purity %,[1]; [7],99.9%
same,Purity %,[1]; [8],99.5%
same,Purity %,[1]; [9],100.0%
same,Purity %,[1]; [10],100.0%
same,Purity %,[1]; [11],99.9%
same,Purity %,[1]; [12],99.5%
same,Purity %,[1]; [13],100.0%
same,Purity %,[1]; [14],100.0%
same,% impurities,"[2]; T = 5° C., time 0",0.49%
same,% impurities,"[2]; T = 5° C., time 3 (months)",0.10%
same,% impurities,"[2]; T = 5° C., time 6 (months)",0.10%
same,% impurities,"[2]; T = 5° C., time 9 (months)",0.10%
same,% impurities,[2]; [4],0.49%
same,% impurities,[2]; [5],0.10%
same,% impurities,[2]; [6],0.10%
same,% impurities,[2]; [7],0.10%
same,% impurities,[2]; [8],0.49%
same,% impurities,[2]; [9],0.10%
same,% impurities,[2]; [10],0.10%
same,% impurities,[2]; [11],0.10%
same,% impurities,[2]; [12],0.49%
same,% impurities,[2]; [13],0.10%
same,% impurities,[2]; [14],0.10%
same,Impurities (in words),[2],invariable impurity profile
same,Clinical signs,female CD-1 mice; [15],quickly reversible neurological signs
same,Histopathological examination of kidneys,female CD-1 mice; [15],only a mild dilatation of convoluted tubules
same,Toxicity compared with hydrochloride,"female CD-1 mice; female mice, 2000 mg/kg bw",strongly less toxic
same,concentration at 2 min,[3]; [16],1070 ng/mL
same,concentration at 5 min,[3]; [16],2350 ng/mL
same,concentration at 30 min,[3]; [16],838 ng/mL
same,concentration at 90 min,[3]; [16],0 ng/mL
same,concentration at 300 min,[3]; [16],0 ng/mL
same,Plasma concentration of free BTG 1640 with respect to hydrochloride,"[3]; rat, in vivo, po, 10 mg/kg",not significantly higher
same,availability of the active principle in the circulation,"[3]; rat, in vivo, po, 10 mg/kg",more favourable
CN1OC2CCCC(=O)C2C1Cc1ccccc1.Cl (stereo not shown) [BTG 1640 hydrochloride],Purity %,"[1]; T = 5° C., time 0",99.3%
same,Purity %,"[1]; T = 5° C., time 3 (months)",100.1%
same,Purity %,"[1]; T = 5° C., time 6 (months)",100.3%
same,Purity %,"[1]; T = 5° C., time 9 (months)",99.6%
same,Purity %,"[1]; T = 5° C., time 12 (months)",99.6%
same,Purity %,"[1]; T = 5° C., time 18 (months)",100.8%
same,Purity %,"[1]; T = 5° C., time 24 (months)",98.8%
same,Purity %,"[1]; T = 5° C., time 36 (months)",99.8%
same,Purity %,[1]; [4],99.7%
same,Purity %,[1]; [5],100.9%
same,Purity %,[1]; [6],101.5%
same,Purity %,[1]; [7],99.3%
same,Purity %,[1]; [17],101.1%
same,Purity %,[1]; [18],100.5%
same,Purity %,[1]; [19],99.3%
same,Purity %,[1]; [20],99.5%
same,Purity %,[1]; [8],99.7%
same,Purity %,[1]; [9],100.0%
same,Purity %,[1]; [10],100.9%
same,Purity %,[1]; [11],100.6%
same,Purity %,[1]; [21],99.9%
same,Purity %,[1]; [12],99.7%
same,Purity %,[1]; [13],93.4%
same,Purity %,[1]; [14],81.2%
same,Stability (in words),[1]; condition d): 40° C. and 75% RH,strong instability
same,Stability (in words),"[1]; conditions a)-c): 5° C., 25° C./60% RH, 30° C./65% RH",good stability
same,validity time period,"[1]; on the basis of the stability results, preserved at 2-8° C.",12 months
same,Stability (in words),[1]; temperatures higher than 30° C.,unstable
same,% impurities,"[2]; T = 5° C., time 0",0.36%
same,% impurities,"[2]; T = 5° C., time 3 (months)",0.58%
same,% impurities,"[2]; T = 5° C., time 6 (months)",0.45%
same,% impurities,"[2]; T = 5° C., time 9 (months)",0.31%
same,% impurities,"[2]; T = 5° C., time 12 (months)",0.31%
same,% impurities,"[2]; T = 5° C., time 18 (months)",0.1%
same,% impurities,"[2]; T = 5° C., time 24 (months)",0.21%
same,% impurities,"[2]; T = 5° C., time 36 (months)",0.18%
same,% impurities,[2]; [4],0.36%
same,% impurities,[2]; [5],0.43%
same,% impurities,[2]; [6],0.87%
same,% impurities,[2]; [7],0.24%
same,% impurities,[2]; [17],0.34%
same,% impurities,[2]; [18],0.13%
same,% impurities,[2]; [19],0.28%
same,% impurities,[2]; [20],0.30%
same,% impurities,[2]; [8],0.36%
same,% impurities,[2]; [9],0.44%
same,% impurities,[2]; [10],0.52%
same,% impurities,[2]; [11],0.12%
same,% impurities,[2]; [21],0.76%
same,% impurities,[2]; [12],0.36%
same,% impurities,[2]; [13],6.99%
same,% impurities,[2]; [14],17.31%
same,Impurities (in words),[2],unacceptable percentage of impurities
same,Clinical signs,female CD-1 mice; [15],"Lethargy, ataxia, aggressiveness and vocalization"
same,Histopathological examination of kidneys,female CD-1 mice; [15],"small foci of acute tubular necrosis in the cortex, balloon degeneration of the epithelium and dilatation of convoluted tubules"
same,Lethality,"female CD-1 mice; female CD-1 mice, oral gavage 2000 mg/kg bw, 14 days observation",lethal in two animals out of three
same,BTG 1640 free base concentration in plasma,[3]; 2 minutes,0.7402 µg/mL
same,BTG 1640 free base concentration in plasma,[3]; 5 minutes,1.4242 µg/mL
same,BTG 1640 free base concentration in plasma,[3]; 30 minutes,0.2354 µg/mL
same,BTG 1640 free base concentration in plasma,[3]; 90 minutes,0.1184 µg/mL
same,BTG 1640 free base concentration in plasma,[3]; 300 minutes,0 µg/mL
CN1OC2CCCC(=O)C2C1Cc1ccccc1.O=C(O)CCC(=O)O (stereo not shown) [BTG 1640 succinate],Purity %,"[1]; T = 5° C., time 0",99.2%
same,Purity %,"[1]; T = 5° C., time 3 (months)",98.0%
same,Purity %,"[1]; T = 5° C., time 6 (months)",98.1%
same,Purity %,"[1]; T = 5° C., time 9 (months)",96.8%
same,Purity %,[1]; [4],99.2%
same,Purity %,[1]; [5],92.7%
same,Purity %,[1]; [6],87.0%
same,Purity %,[1]; [7],90.5%
same,Purity %,[1]; [8],99.2%
same,Purity %,[1]; [9],85.4%
same,Purity %,[1]; [10],71.5%
same,Purity %,[1]; [11],66.8%
same,Purity %,[1]; [12],99.2%
same,Purity %,[1]; [13],16.5%
same,Stability compared with BTG 1640 hydrochloride,[1]; conditions a)-d),even worse
same,Degradation (in words),"[1]; conditions a)-d), from the third month",shows degradation at all observation conditions
same,% impurities,"[2]; T = 5° C., time 0",0.77%
same,% impurities,"[2]; T = 5° C., time 3 (months)",2.00%
same,% impurities,"[2]; T = 5° C., time 6 (months)",1.90%
same,% impurities,"[2]; T = 5° C., time 9 (months)",3.20%
same,% impurities,[2]; [4],0.77%
same,% impurities,[2]; [5],7.30%
same,% impurities,[2]; [6],13.00%
same,% impurities,[2]; [7],9.50%
same,% impurities,[2]; [8],0.77%
same,% impurities,[2]; [9],14.60%
same,% impurities,[2]; [10],28.50%
same,% impurities,[2]; [11],33.30%
same,% impurities,[2]; [12],0.77%
same,% impurities,[2]; [13],83.50%
